Assay results: US6890708B2, “Method for improving the quality of sperm for artificial insemination of animals” (priority 2000, dated 2005)

System: boar spermatozoa
Experiment: Sperm viability in vitro (motility, acrosome morphology), Example I
Format: cell-based, pig
Experimental: Aliquots of 80 μl of the PMN suspension (see, PMN isolation and preparation of PMNs) in TM or TM-s, with either intact or inactivated complement, were transferred to a 96-well polystyrene microtest plate. To each well, 20 μl of sperm suspension (see, preparation of semen samples) was added and the microtest plate was placed in a humidified incubator at 38° C. with 5% CO2 in air. […] The samples were incubated with gentle swirling on a test plate shaker. After 15, 30, 45, 60 or 90 min., samples were quantitatively transferred into tubes containing an equal volume of 40 mg ml^−1 heparin (Sigma) in PBS. The heparin facilitates dissociation of agglutinated PMNs. The samples were thoroughly mixed, left for 15 min., and mixed again. Subsamples of 75 μl were fixed by addition of 25 μl of 2% (v/v) glutaraldehyde (Fluka, Brunschwig chemie, Amsterdam, The Netherlands) in PBS. “Blank” samples, i.e., sperm without PMNs (80 μl TM-s mixed with 20 μl sperm suspension), were incubated in parallel to monitor sperm survival during the treatment. “Reference” samples, i.e., frozen-thawed (killed) semen, were incubated in parallel with the PMNs as a reference for the phagocytotic activity of the PMNs. The frozen-thawed semen was taken from a large stock of semen from one ejaculate and washed 3 times in PBS prior to use.
For evaluation of phagocytosis, wet mounts of the fixed samples were examined with a combination of phase-contrast and fluorescence microscopy (Olympus BH2, Tokyo, Japan) at 400× magnification. The mounts enabled observation and counting of fluorescently labeled spermatozoa inside and outside the phagocytes. By focusing at different levels in the mount, spermatozoa that were located above or below the PMN could be distinguished from those that were phagocytosed. […] Two hundred spermatozoa were evaluated and classified as inside or outside the PMN (i.e., phagocytosed or not phagocytosed). The same fixed mounts were used to assess the acrosome morphology of the non-phagocytosed spermatozoa at the moment of fixation. One hundred cells were classified using phase-contrast microscopy at 400× magnification, as NAR (normal apical ridge), NAR' (slightly altered normal apical ridge), DAR (damaged apical ridge), MAR (missing apical ridge) and LAC (loose acrosomal cap), as described by Pursel et al. (Pursel V G, Schulman L L and Johnson L A, 1978, Distribution and morphology of fresh and frozen-thawed sperm in the reproductive tract of gilts after insemination Biology of Reproduction 19 69-76.)

[1] = Exp. 1, after adding active compound and pre-incubation 30 min. at 38° C.
[2] = Exp. 1, blank samples without PMN, phagocytosis time 60 min.
[3] = Exp. 1, blank samples without PMN, preincubated 30 min. at 38° C., phagocytosis time 30 min.
[4] = Exp. 2, 0.2 mM, after adding active compound, without pre-incubation
[5] = Exp. 2, 0.2 mM, blank samples without PMN, without pre-incubation, phagocytosis time 30 min.
[6] = Exp. 2, 0.5 mM, after adding active compound, after pre-incubation
[7] = Exp. 2, 0.5 mM, after adding active compound, without pre-incubation
[8] = Exp. 2, 0.5 mM, blank samples without PMN, after pre-incubation
[9] = Exp. 2, 0.5 mM, blank samples without PMN, without pre-incubation, phagocytosis time 30 min.
[10] = Exp. 2, 1 mM, after adding active compound, after pre-incubation
[11] = Exp. 2, 1 mM, after adding active compound, without pre-incubation
[12] = Exp. 2, 1 mM, blank samples without PMN, after pre-incubation
[13] = Exp. 2, 1 mM, blank samples without PMN, without pre-incubation, phagocytosis time 30 min.
[14] = Exp. 2, 2 mM, after adding active compound, after pre-incubation
[15] = Exp. 2, 2 mM, after adding active compound, without pre-incubation
[16] = Exp. 2, 2 mM, blank samples without PMN, after pre-incubation
[17] = Exp. 2, 2 mM, blank samples without PMN, without pre-incubation, phagocytosis time 30 min.
[18] = Exp. 3, 1 mM, after pre-incubation of sperm 30 min. at 38° C.
[19] = Exp. 3, 1 caffeine, blank samples without PMN, after pre-incubation at 38° C., phagocytosis time 30 min.

Cn1c(=O)c2c(ncn2C)n(C)c1=O [caffeine, 1,3,7-Trimethylxanthine]
% DAR [1]: 30%
% LAC [1]: 15%
% MAR [1]: 02%
% NAR [1]: 53%
% LAC [2]: 22%
% MAR (second value of NAR-MAR-MAR-LAC) [2]: 36%
% MAR (third value of NAR-MAR-MAR-LAC) [2]: 05%
% NAR [2]: 37%
% LAC [3]: 21%
% MAR (second value of NAR-MAR-MAR-LAC) [3]: 39%
% MAR (third value of NAR-MAR-MAR-LAC) [3]: 03%
% NAR [3]: 37%
% DAR [4]: 12%
% LAC [4]: 03%
% MAR [4]: 01%
% motile sperm [4]: 80%
% DAR [5]: 12%
% LAC [5]: 03%
% MAR [5]: 00%
% NAR [5]: 85%
% DAR [6]: 14%
% LAC [6]: 02%
% MAR [6]: 01%
% NAR [6]: 83%
% motile sperm [6]: 80%
% DAR [7]: 12%
% LAC [7]: 02%
% MAR [7]: 02%
% NAR [7]: 84%
% motile sperm [7]: 80%
% DAR [8]: 12%
% LAC [8]: 02%
% MAR [8]: 01%
% NAR [8]: 85%
% DAR [9]: 10%
% LAC [9]: 03%
% MAR [9]: 00%
% NAR [9]: 87%
% DAR [10]: 16%
% LAC [10]: 06%
% MAR [10]: 01%
% NAR [10]: 77%
% motile sperm [10]: 80%
% DAR [11]: 09%
% LAC [11]: 03%
% MAR [11]: 01%
% NAR [11]: 87%
% motile sperm [11]: 80%
% DAR [12]: 21%
% LAC [12]: 06%
% MAR [12]: 01%
% NAR [12]: 72%
% DAR [13]: 10%
% LAC [13]: 05%
% MAR [13]: 00%
% NAR [13]: 85%
% DAR [14]: 20%
% LAC [14]: 05%
% MAR [14]: 02%
% NAR [14]: 73%
% motile sperm [14]: 80%
% DAR [15]: 13%
% LAC [15]: 04%
% MAR [15]: 01%
% NAR [15]: 82%
% motile sperm [15]: 80%
% DAR [16]: 24%
% LAC [16]: 05%
% MAR [16]: 01%
% NAR [16]: 70%
% DAR [17]: 12%
% LAC [17]: 08%
% MAR [17]: 01%
% NAR [17]: 79%
% DAR [18]: 24%
% LAC [18]: 08%
% MAR [18]: 01%
% NAR [18]: 67%
% DAR [19]: 24%
% LAC [19]: 08%
% MAR [19]: 02%
% NAR [19]: 66%
